# According to patent publication US11534443B2, “Quinazoline compounds, preparation method, use, and pharmaceutical composition thereof” (INSTITUTE OF MATERIA MEDICA, CHINESE ACADEMY OF MEDICAL …, priority 2016, dated 2022):
# Legend:
# PI3Kα = PI3Kα (Homo sapiens (Human), UniProt P42336); test: Biochemical evaluation of activity of PI3Kα (Kinase-Glo luminescence kinase assay); settings: 25 μM ATP, 50 μM PIP2, 1 h at room temperature
# Description: The potency of compounds in the present intention against PI3Kα was assessed by in vitro kinase assay. The kinase activity of PI3Kα was determined by detecting the level of ADP produced in the kinase reaction with luciferase-based luminescence detection.
# The Kinase-Glo™ Kinase Assay Kit was purchased from Promega. All assays were performed at room temperature using white OptiPlate™-384 well plate. The PI3Kα kinase was purchased from Invitrogen. The substrate was PIP2 from Invitrogen. The kinase buffer contained 50 mM Hepes (pH 7.5), 3 mM MgCl2, 100 mM NaCl, 1 mM EGTA, 0.03% CHAPS and 2 mM DTT. […] The substrate solution contained 100 μM PIP2 and 50 μM ATP. The test compound was diluted to 10 mM in 100% DMSO and serially diluted three times into ten different concentrations in 100% DMSO. The compound diluted in 100% DMSO was diluted 25-fold in 1×kinase buffer. 2.5 μL of the diluted compound solution and 2.5 μL PI3Kα kinase solution were added to each well of a 384-well plate. The reaction was initiated by addition of 5 μL substrate solution to each well. […] The plate was then covered and the reaction was allowed to proceed for one hour at room temperature, followed by the addition of 10 μL Kinase-Glo™ reagent to each well to stop the reaction.
# The percentage of inhibition was calculated as follows: Inhibition %=100−(max−sample RLU)/(max−min)*100
# wherein sample RLU was the luminescence reading for a given compound concentration, min was the reading of DMSO control, and max was the reading of the enzyme-free control. The IC50 value was calculated with the XLfit program in Excel.
# [1] = test system: human lung cancer cell NCI-H460; test: Tumor cell viability by MTT assay; assay type: cell-based
# Description: After 24 hours, 100 μL of fresh medium containing different concentrations of test compounds and the corresponding solvent control was added into each well to a final concentration of DMSO less than 0.2%. Six to nine concentration groups were set for each test compound, and three parallel wells were set for each group. The plate was incubated at 5% CO2, 37° C. for 96 hours. 20 μL of freshly prepared PBS solution containing 5 mg/mL MTT was added to each well. The supernatant was discarded after incubation for another 4 hours. 150 μL DMSO was added to each well to dissolve the MTT formazan precipitate. After being mixed by a micro-oscillator, the optical density (OD) was measured at the wavelength of 570 nm, and the tumor cells treated with DMSO were used as a control group.
# Chain of PI3Kα (P42336 whole entry): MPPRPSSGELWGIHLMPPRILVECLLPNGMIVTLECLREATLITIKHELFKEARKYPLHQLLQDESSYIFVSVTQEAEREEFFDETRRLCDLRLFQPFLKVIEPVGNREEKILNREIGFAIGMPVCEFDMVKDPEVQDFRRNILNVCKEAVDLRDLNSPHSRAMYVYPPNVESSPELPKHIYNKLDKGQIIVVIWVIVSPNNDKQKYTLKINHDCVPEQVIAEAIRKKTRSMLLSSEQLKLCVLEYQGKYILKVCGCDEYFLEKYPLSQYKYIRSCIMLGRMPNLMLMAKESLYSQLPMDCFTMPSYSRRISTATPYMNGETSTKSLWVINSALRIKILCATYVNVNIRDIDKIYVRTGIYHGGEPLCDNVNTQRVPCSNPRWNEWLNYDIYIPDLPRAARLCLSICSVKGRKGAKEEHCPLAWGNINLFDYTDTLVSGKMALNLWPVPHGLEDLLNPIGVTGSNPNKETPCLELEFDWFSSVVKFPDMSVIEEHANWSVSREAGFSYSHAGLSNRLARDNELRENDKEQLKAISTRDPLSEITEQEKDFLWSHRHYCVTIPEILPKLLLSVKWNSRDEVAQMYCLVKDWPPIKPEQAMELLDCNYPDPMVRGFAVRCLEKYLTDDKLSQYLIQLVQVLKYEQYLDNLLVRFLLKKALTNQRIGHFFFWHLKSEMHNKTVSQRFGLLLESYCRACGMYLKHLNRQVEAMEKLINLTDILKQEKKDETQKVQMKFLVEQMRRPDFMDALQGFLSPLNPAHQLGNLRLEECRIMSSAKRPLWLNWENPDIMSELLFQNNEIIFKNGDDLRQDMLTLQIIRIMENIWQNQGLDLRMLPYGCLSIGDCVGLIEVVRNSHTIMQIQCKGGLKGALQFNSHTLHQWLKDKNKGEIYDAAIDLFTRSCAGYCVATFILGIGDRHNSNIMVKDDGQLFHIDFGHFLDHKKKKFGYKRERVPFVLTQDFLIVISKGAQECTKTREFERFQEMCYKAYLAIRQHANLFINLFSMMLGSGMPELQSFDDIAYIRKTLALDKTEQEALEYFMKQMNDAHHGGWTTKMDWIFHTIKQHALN
# Chain of PI3Kα (P27986 whole entry partner): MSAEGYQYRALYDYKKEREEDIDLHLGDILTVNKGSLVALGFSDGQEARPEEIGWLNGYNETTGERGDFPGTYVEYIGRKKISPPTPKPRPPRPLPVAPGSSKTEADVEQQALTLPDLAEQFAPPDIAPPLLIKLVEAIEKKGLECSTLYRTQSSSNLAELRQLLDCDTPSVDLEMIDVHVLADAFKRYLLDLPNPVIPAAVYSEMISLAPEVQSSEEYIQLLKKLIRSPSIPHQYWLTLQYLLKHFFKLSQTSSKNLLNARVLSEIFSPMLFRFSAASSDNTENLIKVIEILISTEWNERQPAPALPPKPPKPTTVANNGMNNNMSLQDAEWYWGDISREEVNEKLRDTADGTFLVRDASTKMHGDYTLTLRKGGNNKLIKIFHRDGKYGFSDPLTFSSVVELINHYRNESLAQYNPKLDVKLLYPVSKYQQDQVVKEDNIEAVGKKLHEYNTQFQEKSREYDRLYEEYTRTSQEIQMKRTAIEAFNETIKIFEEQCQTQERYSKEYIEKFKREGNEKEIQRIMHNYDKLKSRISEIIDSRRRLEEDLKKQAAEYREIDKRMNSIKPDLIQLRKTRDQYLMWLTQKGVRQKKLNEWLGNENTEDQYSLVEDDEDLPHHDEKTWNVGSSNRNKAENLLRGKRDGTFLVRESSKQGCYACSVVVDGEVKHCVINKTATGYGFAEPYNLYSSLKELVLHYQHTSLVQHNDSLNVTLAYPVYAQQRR
SMILES,IC50 (PI3Kα) [nM],"IC50 ([1]; Homo sapiens, NCI-H460, 96 h) [nM]",IC50 ([1]; 96 hours) [nM]
"COCCOc1cc(-c2cnc(OC)c(NS(=O)(=O)c3ccc(F)cc3F)c2)cc2c(C)nc(N)nc12 [Example 25, N-(5-(2-amino-8-(2-methoxyethoxy)-4-methylquinazolin-6-yl)-2-methoxypyridin-3-yl)-2,4-difluorobenzenesulfonamide]",1.6,200,
"COc1ncc(-c2cc(OC3CCOCC3)c3nc(N)nc(C)c3c2)cc1NS(C)(=O)=O [Example 5, N-(5-(2-amino-4-methyl-8-((tetrahydro-2H-pyran-4-yl)oxy)quinazolin-6-yl)-2-methoxypyridin-3-yl)methanesulfonamide]",2.7,860,
"COc1ncc(-c2cc(OC3CCC(F)(F)CC3)c3ncnc(C)c3c2)cc1NS(=O)(=O)c1ccc(F)cc1F [Example 57, N-(5-(8-((4,4-difluorocyclohexyl)oxy)-4-methylquinazolin-6-yl)-2-methoxypyridin-3-yl)-2,4-difluorobenzenesulfonamide]",1.7,450,
"CNc1nc(C)c2cc(-c3cnc(OC)c(NS(=O)(=O)c4ccc(Cl)s4)c3)cc(O[C@@H]3CCOC3)c2n1 [Example 34, (R)—N-(2-methoxy-5-(4-methyl-2-(methylamino)-8-((tetrahydrofuran-3-yl)oxy)quinazolin-6-yl)pyridin-3-yl)-5-chlorothiophene-2-sulfonamide]",1.6,110,
"COc1ncc(-c2cc(OCCn3cccn3)c3ncnc(C)c3c2)cc1NS(=O)(=O)c1ccc(F)cc1F [Example 64, N-(5-(8-(2-(1H-pyrazol-1-yl)ethoxy)-4-methylquinazolin-6-yl)-2-methoxypyridin-3-yl)-2,4-difluorobenzenesulfonamide]",1.5,390,
"COc1ncc(-c2cc(OCCN3CCCC3)c3ncnc(C)c3c2)cc1NS(=O)(=O)c1ccc(F)cc1F [Example 63, N-(2-methoxy-5-(4-methyl-8-(2-(pyrrolidin-1-yl)ethoxy)quinazolin-6-yl)pyridin-3-yl)-2,4-difluorobenzenesulfonamide]",10,2100,
"COc1ncc(-c2cc(O[C@H]3CCOC3)c3ncnc(C)c3c2)cc1NS(C)(=O)=O [Example 52, (S)—N-(2-methoxy-5-(4-methyl-8-((tetrahydrofuran-3-yl)oxy)quinazolin-6-yl)pyridin-3-yl)methanesulfonamide]",2.1,670,
"Cc1ncc(-c2cc(OC3CCOCC3)c3ncnc(C)c3c2)cc1NS(=O)(=O)c1ccc(F)cc1F [Example 74, N-(2-methyl-5-(4-methyl-8-((tetrahydro-2H-pyran-4-yl)oxy)quinazolin-6-yl)pyridin-3-yl)-2,4-difluorobenzenesulfonamide]",1.1,870,
"CNc1nc(C)c2cc(-c3cnc(OC)c(NS(=O)(=O)c4ccc(F)cc4F)c3)cc(OC3CCCCC3)c2n1 [Example 39, N-(5-(8-(cyclohexyloxy)-4-methyl-2-(methylamino)quinazolin-6-yl)-2-methoxypyridin-3-yl)-2,4-difluorobenzenesulfonamide]",15,1700,
"COc1ncc(-c2cc(OC3CCOCC3)c3ncnc(C)c3c2)cc1NS(C)(=O)=O [Example 47, N-(2-methoxy-5-(4-methyl-8-((tetrahydro-2H-pyran-4-yl)oxy)quinazolin-6-yl)pyridin-3-yl)methanesulfonamide]",1.4,570,
"COc1ncc(-c2cc(OC(F)F)c3ncnc(C)c3c2)cc1NS(=O)(=O)c1ccc(F)cc1F [Example 71, N-(5-(8-(difluoromethoxy)-4-methylquinazolin-6-yl)-2-methoxypyridin-3-yl)-2,4-difluorobenzenesulfonamide]",1.9,1000,
"Cc1nc(N)nc2c(OC3CCOCC3)cc(-c3cnc(Cl)c(NS(=O)(=O)c4ccc(F)cc4)c3)cc12 [Example 8, N-(5-(2-amino-4-methyl-8-((tetrahydro-2H-pyran-4-yl)oxy)quinazolin-6-yl)-2-chloropyridin-3-yl)-4-fluorobenzenesulfonamide]",1,1200,
"COc1ncc(-c2cc(OC3CCOCC3)c3nc(NCC4CC4)nc(C)c3c2)cc1NS(=O)(=O)c1ccc(F)cc1F [Example 31, N-(5-(2-((cyclopropylmethyl)amino)-4-methyl-8-((tetrahydro-2H-pyran-4-yl)oxy)quinazolin-6-yl)-2-methoxypyridin-3-yl)-2,4-difluorobenzenesulfonamide]",3.8,410,
"COc1ncc(-c2cc(O[C@H]3CC[C@H](OC)CC3)c3nc(N)nc(C)c3c2)cc1NS(=O)(=O)c1ccc(F)cc1F (single isomer, unassigned) [Example 18-2, N-(5-(2-amino-8-((4-methoxycyclohexyl)oxy)-4-methylquinazolin-6-yl)-2-methoxypyridin-3-yl)-2,4-difluorobenzenesulfonamide]",0.8,,57
"COc1ncc(-c2cc(OC)c3nc(N)nc(C)c3c2)cc1NS(=O)(=O)c1ccc(F)cc1F [Example 28, N-(5-(2-amino-8-methoxy-4-methylquinazolin-6-yl)-2-methoxypyridin-3-yl)-2,4-difluorobenzenesulfonamide]",1.2,280,
"COc1ncc(-c2cc(OC3CCOCC3)c3ncnc(C)c3c2)cc1NS(=O)(=O)c1ccc(F)cc1Cl [Example 45, N-(2-methoxy-5-(4-methyl-8-((tetrahydro-2H-pyran-4-yl)oxy)quinazolin-6-yl)pyridin-3-yl)-2-chloro-4-fluorobenzenesulfonamide]",0.92,45,
"COc1ncc(-c2cc(OC3CCOC(C)(C)C3)c3ncnc(C)c3c2)cc1NS(=O)(=O)c1ccc(F)cc1F (stereo not drawn) [Example 58, N-(5-(8-((2,2-dimethyltetrahydro-2H-pyran-4-yl)oxy)-4-methylquinazolin-6-yl)-2-methoxypyridin-3-yl)-2,4-difluorobenzenesulfonamide]",1,56,
"COc1ncc(-c2cc(OCC3CC3)c3nc(N)nc(C)c3c2)cc1NS(=O)(=O)c1ccc(F)cc1F [Example 27, N-(5-(2-amino-8-(cyclopropylmethoxy)-4-methylquinazolin-6-yl)-2-methoxypyridin-3-yl)-2,4-difluorobenzenesulfonamide]",1.7,200,
"COc1ncc(-c2cc(OCC3CC3)c3ncnc(C)c3c2)cc1NS(=O)(=O)c1ccc(F)cc1F [Example 68, N-(5-(8-(cyclopropylmethoxy)-4-methylquinazolin-6-yl)-2-methoxypyridin-3-yl)-2,4-difluorobenzenesulfonamide]",1.6,340,
"COc1ncc(-c2cc(OC3CCN(C)CC3)c3nc(N)nc(C)c3c2)cc1NS(=O)(=O)c1ccc(F)cc1F [Example 15, N-(5-(2-amino-4-methyl-8-((1-methylpiperidin-4-yl)oxy)quinazolin-6-yl)-2-methoxypyridin-3-yl)-2,4-difluorobenzenesulfonamide]",5.5,660,
"COc1ncc(-c2cc(OCC3CCOCC3)c3nc(N)nc(C)c3c2)cc1NS(=O)(=O)c1ccc(F)cc1F [Example 13, N-(5-(2-amino-4-methyl-8-((tetrahydro-2H-pyran-4-yl)methoxy)quinazolin-6-yl)-2-methoxypyridin-3-yl)-2,4-difluorobenzenesulfonamide]",0.84,21,
"COc1ncc(-c2cc(OC3CCCCC3)c3ncnc(C)c3c2)cc1NS(=O)(=O)c1ccc(F)cc1F [Example 55, N-(5-(8-(cyclohexyloxy)-4-methylquinazolin-6-yl)-2-methoxypyridin-3-yl)-2,4-difluorobenzenesulfonamide]",1.7,97,
"COc1ncc(-c2cc(OC3CCOCC3)c3ncnc(C)c3c2)cc1NS(=O)(=O)C1CC1 [Example 48, N-(2-methoxy-5-(4-methyl-8-((tetrahydro-2H-pyran-4-yl)oxy)quinazolin-6-yl)pyridin-3-yl)cyclopropanesulfonamide]",2.1,280,
"COc1ncc(-c2cc(O[C@H]3CC[C@H](OC)CC3)c3nc(N)nc(C)c3c2)cc1NS(=O)(=O)c1ccc(F)cc1F (single isomer, unassigned) [Example 18-1, N-(5-(2-amino-8-((4-methoxycyclohexyl)oxy)-4-methylquinazolin-6-yl)-2-methoxypyridin-3-yl)-2,4-difluorobenzenesulfonamide]",1.1,30,
